target: JAK1 (Homo sapiens (Human), UniProt P23458); assay: Jak biochemical HTRF assay, JAK1; settings: HTRF biochemical assay, recombinant GST-tagged catalytic domain; read-out: JAK1 IC50
Protocol: Jak Biochemical HTRF Assay Protocol
The ability of compounds to inhibit the activity of JAK1, JAK2, JAK3, and Tyk2 was measured using a recombinant purified GST-tagged catalytic domain for each enzyme (Invitrogen JAK1 #M4290, JAK2 #M4290, JAK3 #M4290, Tyk2 #M4290) in an HTRF format biochemical assay. […] The basic assay protocol is as follows: First, 250 nL of diluted compounds in DMSO were dispensed into the wells of a dry 384-well Black plate (Greiner #781076) using a Labcyte Echo 555 acoustic dispenser. Subsequent reagent additions employed an Agilent Bravo. […] After equilibration, 2 μL of 10×ATP in 1× assay buffer was added to initiate the kinase reaction and the plates were shaken and then incubated at room temperature for 120 minutes. […] Plates were shaken and centrifuged and then incubated 60 minutes at room temperature and then read on a Perkin Elmer Envision (λex=337 nm, λem=665 and 615 nm, TRF delay time=20 μs). HTRF signal=10,000*665 nm reading/615 nm reading. After normalization to untreated controls, the percent inhibition of the HTRF signal at each compound concentration was calculated. The plot of percent inhibition versus the log of compound concentration was fit with a 4-parameter dose response equation to calculate IC50 values.
Final Reaction Conditions were:
Examples of the instant invention were evaluated in JAK1 and JAK2 in vitro binding assays.

Chain of JAK1 (P23458 875-1153): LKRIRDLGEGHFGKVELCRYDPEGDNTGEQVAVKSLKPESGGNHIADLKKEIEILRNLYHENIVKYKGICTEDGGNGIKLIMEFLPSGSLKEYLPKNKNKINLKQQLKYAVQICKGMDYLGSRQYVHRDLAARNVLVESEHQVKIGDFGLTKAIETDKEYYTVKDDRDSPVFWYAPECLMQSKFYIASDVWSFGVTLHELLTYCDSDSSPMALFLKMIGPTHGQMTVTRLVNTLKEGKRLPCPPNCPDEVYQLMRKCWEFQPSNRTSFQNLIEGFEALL

IC50 [nM]	SMILES
0.14	N#C[C@H]1CCCC[C@@H]1n1nc(Nc2ccc(C3(C(F)(F)F)CCCN3)cc2)c2c(=O)[nH]ccc21 (single isomer, unassigned) [Example 15-61, (1S,2S)-2-[4-oxo-3-({4-[(2R or 2S)-2-(trifluoromethyl)pyrrolidin-2-yl]phenyl}amino)-4,5-dihydro-1H-pyrazolo[4,3-c]pyridin-1-yl]cyclohexanecarbonitrile]
5.3	CC(C)OC(=O)C(C)(C)C(O)(c1ccc(Nc2nn([C@H]3CCCC[C@@H]3C#N)c3cc[nH]c(=O)c23)cc1)C(F)(F)F (single isomer, unassigned) [Example 3-119, (R or S) Isopropyl 3-(4-((1-((1S,2S)-2-cyanocyclohexyl)-4-oxo-4,5-dihydro-1H-pyrazolo[4,3-c]pyridin-3-yl)amino)phenyl)-4,4,4-trifluoro-3-hydroxy-2,2-dimethylbutanoate]
0.077	N#C[C@H]1CCC[C@@H]1n1nc(Nc2ccc(C3(C(F)(F)F)CCCCN3)cc2)c2c(=O)[nH]ccc21 (single isomer, unassigned) [Example 15-72, (1S,2S)-2-[4-oxo-3-({4-[(2R or 2S)-2-(trifluoromethyl)piperidin-2-yl]phenyl}amino)-4,5-dihydro-1H-pyrazolo[4,3-c]pyridin-1-yl]cyclopentanecarbonitrile]
0.18	N#C[C@H]1CCCC[C@@H]1n1nc(Nc2ccc(-c3ccon3)cc2)c2c(=O)[nH]ccc21 [Example 15-4, (1S,2S)-2-{3-[(4-isoxazol-3-ylphenyl)amino]-4-oxo-4,5-dihydro-1H-pyrazolo[4,3-c]pyridin-1-yl}cyclohexanecarbonitrile]
14	N#C[C@@H]1CCCC[C@H]1n1nc(Nc2cccc(CNC(=O)c3cnco3)c2)c2c(=O)[nH]ccc21 [Example 3-13, N-[3-({1-[(1R,2R)-2-cyanocyclohexyl]-4-oxo-4,5-dihydro-1H-pyrazolo[4,3-c]pyridin-3-yl}amino)benzyl]-1,3-oxazole-5-carboxamide]
1	CC(C)OC(=O)C(C)(C)C(O)(c1ccc(Nc2nn([C@H]3CCCC[C@@H]3C#N)c3cc[nH]c(=O)c23)cc1)C(F)(F)F (single isomer, unassigned) [Example 3-120, (R or S) Isopropyl 3-(4-((1-((1S,2S)-2-cyanocyclohexyl)-4-oxo-4,5-dihydro-1H-pyrazolo[4,3-c]pyridin-3-yl)amino)phenyl)-4,4,4-trifluoro-3-hydroxy-2,2-dimethylbutanoate]
0.53	N#C[C@H]1CCCC[C@@H]1n1nc(Nc2ccc([C@]3(O)CC[C@H](C(=O)O)CC3)cc2)c2c(=O)[nH]ccc21 [Example 17-2]
0.52	N#C[C@H]1CCCC[C@@H]1n1nc(Nc2ccc3c(c2)CN(CC2CC2)C3)c2c(=O)[nH]ccc21 [Example 3-77, (1S,2S)-2-(3-{[2-(cyclopropylmethyl)-2,3-dihydro-1H-isoindol-5-yl]amino}-4-oxo-4,5-dihydro-1H-pyrazolo[4,3-c]pyridin-1-yl)cyclohexanecarbonitrile]
1.2	Cc1cc(Nc2nn([C@H]3CCCC[C@@H]3C#N)c3cc[nH]c(=O)c23)ccc1C(C(C)C)n1nccn1 (single isomer, unassigned) [Example 15-35, (1S,2S)-2-[3-({3-methyl-4-[(1S or 1R)-2-methyl-1-(2H-1,2,3-triazol-2-yl)propyl]phenyl}amino)-4-oxo-4,5-dihydro-1H-pyrazolo[4,3-c]pyridin-1-yl]cyclohexanecarbonitrile]
0.12	CC(C)(C)S(=O)(=O)c1ccc(Nc2nn([C@H]3CCCC[C@@H]3C#N)c3cc[nH]c(=O)c23)cc1 [Example 3-143, (1S,2S)-2-(3-{[4-(tert-butylsulfonyl)phenyl]amino}-4-oxo-4,5-dihydro-1H-pyrazolo[4,3-c]pyridin-1-yl)cyclohexanecarbonitrile]
0.11	N#C[C@H]1CCCC[C@@H]1n1nc(Nc2ccc(C3(C(F)(F)F)CCCN3)cc2)c2c(=O)[nH]ccc21 (single isomer, unassigned) [Example 15-62, (1S,2S)-2-[4-oxo-3-({4-[(2S or 2R)-2-(trifluoromethyl)pyrrolidin-2-yl]phenyl}amino)-4,5-dihydro-1H-pyrazolo[4,3-c]pyridin-1-yl]cyclohexanecarbonitrile]
0.31	CC(C)(C)[S@+]([O-])N[C@H](c1ccc(Nc2nn([C@H]3CCCC[C@@H]3C#N)c3cc[nH]c(=O)c23)cc1)C(F)(F)F [Example 3-56, N-{(1R)-1-[4-({1-[(1S,2S)-2-cyanocyclohexyl]-4-oxo-4,5-dihydro-1H-pyrazolo[4,3-c]pyridin-3-yl}amino)phenyl]-2,2,2-trifluoroethyl}-2-methylpropane-2-sulfinamide]
0.11	N#C[C@H]1C[C@H](N2CC(O)C2)CC[C@@H]1n1nc(Nc2ccc(Cl)cc2)c2c(=O)[nH]ccc21 [Example 5-19, (1S,2S,5R)-2-(3-((4-chlorophenyl)amino)-4-oxo-4,5-dihydro-1H-pyrazolo[4,3-c]pyridin-1-yl)-5-(3-hydroxyazetidin-1-yl)cyclohexanecarbonitrile]
0.057	N#C[C@H]1CCCC[C@@H]1n1nc(Nc2ccc3c(c2)CN(C2CCOCC2)S3(=O)=O)c2c(=O)[nH]ccc21 [Example 15-44, (1S,2S)-2-(3-{[1,1-dioxido-2-(tetrahydro-2H-pyran-4-yl)-2,3-dihydro-1,2-benzisothiazol-5-yl]amino}-4-oxo-4,5-dihydro-1H-pyrazolo[4,3-c]pyridin-1-yl)cyclohexanecarbonitrile]
0.18	N#C[C@H]1CCCC[C@@H]1n1nc(Nc2ccc3c(c2)CC2(CC2)C3(O)C(F)(F)F)c2c(=O)[nH]ccc21 (single isomer, unassigned) [Example 3-123, (1S,2S)-2-(3-(((R or S)-1′-hydroxy-1′-(trifluoromethyl)-1′,3′-dihydrospiro[cyclopropane-1,2′-inden]-5′-yl)amino)-4-oxo-4,5-dihydro-1H-pyrazolo[4,3-c]pyridin-1-yl)cyclohexanecarbonitrile]
0.16	CN(C)C(c1ccc(Nc2nn([C@H]3CCCC[C@@H]3C#N)c3cc[nH]c(=O)c23)cc1)C(F)(F)F (single isomer, unassigned) [Example 9-3, (1S,2S)-2-(3-(4-((S or R)-1-(Dimethylamino)-2,2,2-trifluoroethyl)phenylamino)-4-oxo-4,5-dihydropyrazolo[4,3-c]pyridin-1-yl)cyclohexanecarbonitrile]
0.31	N#C[C@H]1CCCC[C@@H]1n1nc(Nc2cccc(CNC(=O)c3cnco3)c2)c2c(=O)[nH]ccc21 [Example 3-12, N-[3-({1-[(1S,2S)-2-cyanocyclohexyl]-4-oxo-4,5-dihydro-1H-pyrazolo[4,3-c]pyridin-3-yl}amino)benzyl]-1,3-oxazole-5-carboxamide]
5.1	COCC(C)(C)CN1Cc2cc(Nc3nn([C@H]4CCCCC[C@@H]4C#N)c4cc[nH]c(=O)c34)ccc2S1(=O)=O (single isomer, unassigned) [Example 15-49, (1S,2S or 1R,2R)-2-(3-{[2-(3-methoxy-2,2-dimethylpropyl)-1,1-dioxido-2,3-dihydro-1,2-benzisothiazol-5-yl]amino}-4-oxo-4,5-dihydro-1H-pyrazolo[4,3-c]pyridin-1-yl)cycloheptanecarbonitrile]
0.48	CC(c1ccc(Nc2nn([C@H]3CCCC[C@@H]3C#N)c3cc[nH]c(=O)c23)cc1)n1nccn1 (single isomer, unassigned) [Example 15-22, (1S,2S)-2-[4-oxo-3-({4-[(1R or 1S)-1-(2H-1,2,3-triazol-2-yl)ethyl]phenyl}amino)-4,5-dihydro-1H-pyrazolo[4,3-c]pyridin-1-yl]cyclohexanecarbonitrile]
3	C[C@H](N[C@@H]1CC[C@H](n2nc(Nc3ccc(C(F)(F)F)cc3)c3c(=O)[nH]ccc32)[C@@H](C#N)C1)C1CC1 [Example 5-11, (1S,2S,5R)-5-(((S)-1-cyclopropylethyl)amino)-2-(4-oxo-3-((4-(trifluoromethyl)phenyl)amino)-4,5-dihydro-1H-pyrazolo[4,3-c]pyridin-1-yl)cyclohexanecarbonitrile]
0.21	CC(c1ccc(Nc2nn([C@H]3CCCC[C@@H]3C#N)c3cc[nH]c(=O)c23)cc1)n1ccnn1 (single isomer, unassigned) [Example 15-41, (1S,2S)-2-[4-oxo-3-({4-[(1R or 1S)-1-(1H-1,2,3-triazol-1-yl)ethyl]phenyl}amino)-4,5-dihydro-1H-pyrazolo[4,3-c]pyridin-1-yl]cyclohexanecarbonitrile]
0.46	Cc1cc(Nc2nn([C@H]3CCCC[C@@H]3C#N)c3cc[nH]c(=O)c23)ccc1C(C(C)C)n1nccn1 (single isomer, unassigned) [Example 15-36, (1S,2S)-2-[3-({3-methyl-4-[(1R or 1S)-2-methyl-1-(2H-1,2,3-triazol-2-yl)propyl]phenyl}amino)-4-oxo-4,5-dihydro-1H-pyrazolo[4,3-c]pyridin-1-yl]cyclohexanecarbonitrile]
0.11	CC(C)(CO)CN1Cc2cc(Nc3nn([C@H]4CCCC[C@@H]4C#N)c4cc[nH]c(=O)c34)ccc2S1(=O)=O [Example 3-82, (1S,2S)-2-(3-{[2-(3-hydroxy-2,2-dimethylpropyl)-1,1-dioxido-2,3-dihydro-1,2-benzisothiazol-5-yl]amino}-4-oxo-4,5-dihydro-1H-pyrazolo[4,3-c]pyridin-1-yl)cyclohexanecarbonitrile]
